In patent publication US20240174632A1, “INHIBITING HUMAN INTEGRIN (ALPHA-4) (BETA-7)” (Morphic Therapeutic, Inc., priority 2019, published 2024) one finds IC50 data, which are given here for two compounds.

For one assay, the target named is T1, integrin α4β7 (Homo sapiens, UniProt P13612+P26010).
T1 sequence (P13612 34-1032): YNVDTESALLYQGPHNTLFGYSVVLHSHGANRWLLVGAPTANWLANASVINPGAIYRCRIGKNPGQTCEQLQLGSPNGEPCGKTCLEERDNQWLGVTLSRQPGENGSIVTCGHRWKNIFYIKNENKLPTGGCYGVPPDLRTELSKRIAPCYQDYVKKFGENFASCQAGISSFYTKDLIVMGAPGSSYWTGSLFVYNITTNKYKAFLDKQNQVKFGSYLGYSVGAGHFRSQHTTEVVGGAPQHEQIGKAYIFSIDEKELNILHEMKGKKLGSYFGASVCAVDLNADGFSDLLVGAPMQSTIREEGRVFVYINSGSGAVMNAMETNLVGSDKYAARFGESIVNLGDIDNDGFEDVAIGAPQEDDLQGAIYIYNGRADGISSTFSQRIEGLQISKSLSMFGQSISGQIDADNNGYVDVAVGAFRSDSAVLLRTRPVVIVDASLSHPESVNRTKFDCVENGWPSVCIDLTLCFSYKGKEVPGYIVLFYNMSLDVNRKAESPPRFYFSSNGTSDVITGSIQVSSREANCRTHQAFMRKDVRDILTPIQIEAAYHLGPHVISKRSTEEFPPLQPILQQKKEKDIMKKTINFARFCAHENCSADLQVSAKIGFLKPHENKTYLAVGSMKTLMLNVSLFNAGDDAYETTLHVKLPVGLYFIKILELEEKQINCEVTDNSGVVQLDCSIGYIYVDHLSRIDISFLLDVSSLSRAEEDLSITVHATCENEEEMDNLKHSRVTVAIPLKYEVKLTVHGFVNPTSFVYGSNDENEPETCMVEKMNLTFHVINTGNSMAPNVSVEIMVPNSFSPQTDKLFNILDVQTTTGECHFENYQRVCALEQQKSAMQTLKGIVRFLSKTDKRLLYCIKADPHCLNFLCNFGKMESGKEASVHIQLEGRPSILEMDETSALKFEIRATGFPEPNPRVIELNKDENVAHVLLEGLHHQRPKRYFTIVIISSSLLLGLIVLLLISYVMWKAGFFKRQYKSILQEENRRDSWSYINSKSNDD
T1 sequence (P26010 20-798): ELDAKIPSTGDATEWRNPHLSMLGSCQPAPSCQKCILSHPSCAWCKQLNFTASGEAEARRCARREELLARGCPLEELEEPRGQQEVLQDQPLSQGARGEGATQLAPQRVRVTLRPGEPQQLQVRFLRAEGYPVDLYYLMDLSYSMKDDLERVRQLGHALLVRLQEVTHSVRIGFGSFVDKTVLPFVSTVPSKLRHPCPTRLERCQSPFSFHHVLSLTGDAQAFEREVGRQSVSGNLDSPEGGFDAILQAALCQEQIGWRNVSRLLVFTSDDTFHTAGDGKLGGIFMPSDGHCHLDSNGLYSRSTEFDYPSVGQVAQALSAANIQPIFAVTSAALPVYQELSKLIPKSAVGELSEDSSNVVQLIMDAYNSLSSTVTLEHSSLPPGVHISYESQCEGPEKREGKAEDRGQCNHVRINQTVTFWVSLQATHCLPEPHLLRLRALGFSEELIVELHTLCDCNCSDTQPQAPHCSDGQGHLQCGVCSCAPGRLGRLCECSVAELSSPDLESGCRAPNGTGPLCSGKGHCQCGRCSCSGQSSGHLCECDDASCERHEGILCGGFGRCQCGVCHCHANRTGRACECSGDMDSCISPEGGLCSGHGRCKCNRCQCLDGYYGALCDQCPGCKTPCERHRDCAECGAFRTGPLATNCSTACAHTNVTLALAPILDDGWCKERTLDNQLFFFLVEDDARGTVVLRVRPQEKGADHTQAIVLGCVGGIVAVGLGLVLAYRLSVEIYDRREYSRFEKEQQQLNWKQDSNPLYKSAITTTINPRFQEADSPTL
Briefly: Fluorescence Polarization (FP) assay for α4β7 binding, competition with fluorescein-labeled peptide. The conditions noted are these: 6.5 nM integrin α4β7, 3 nM fluorescein-labeled peptide, 2 mM MnCl2; Tables 3A, 3B, 4; read-out: FP Assay (Example 5) IC50. Here is the method:
(§1) Three in vitro assays were used to examine the α4β7 mechanistic process used by cells: 1) ligand:receptor affinity, 2) the avidity of those interactions on a cell's surface, and 3) how those interactions fare under an imposing force. In Example 5, a Fluorescence Polarization (FP) assay is used to measure compound activity through binding competition with the fluorescein-labeled peptide. In Example 6, the potency of compounds against α4β7 is measured in the cell-based ligand binding assay (LBA), using RPMI 8866 cells incubated with the compound samples in competition with soluble MAdCAM-1 ligand. In Example 7, activity of compounds is evaluated in a cell adhesion assay that mechanistically tests what occurs in vivo when trafficking cells utilize α4β7 to adhere to MAdCAM-1 expressing HEVs of the gut during the extravasation process. […] Unattached cells are removed and the remaining adherent cells are quantified.
Fluorescence Polarization (FP) assays were used to measure compound activity through binding competition with the fluorescein-labeled peptide […]{Lys(FITC)}. […] After the fluorescein-labeled peptide was added, the assay was incubated at 22° C. for 1 hour and fluorescence polarization was measured. IC50 values were determined by non-linear regression, four-parameter curve fitting.
On the technique in general: Polarisation of emitted light reports the rotation of a fluorescent probe.

In assay [1] the target is T2, α4β7 (Homo sapiens, UniProt P13612+P26010).
T2 construct: endogenous in cells; host or cells: RPMI 8866 cells
T2 sequence (P13612 34-1032): T1 sequence (P13612 34-1032)
T2 sequence (P26010 20-798): T1 sequence (P26010 20-798)
The assay is described as follows: Cell-based ligand binding assay (LBA), RPMI 8866 cells, competition with soluble MAdCAM-1-Fc. The conditions noted are these: MAdCAM-1-Fc Dylight 650, flow cytometry, Tables 3A, 3B, 4, read-out: LB Assay (Example 6) IC50. Here is the method: as §1
5 ul of 33 nM MAdCAM-1-Fc fluorescently labeled with Dylight 650 in 50 mM HEPES pH 7.3, 150 mM sodium chloride, and 1% bovine serum albumin was added to the cells. […] Fluorescence intensity for each cell was measured via flow cytometry. […] Median fluorescence intensity for Dylight 650 was determined for each sample and concentration-response curves were analyzed for IC50 values using 4-parameter non-linear regression analysis.
For orientation: A flow cytometer gives signals particle by particle.

For assay [2], the target named is T2, α4β7. Briefly: Cell adhesion assay, RPMI8866 cells adhering to MAdCAM coated plates. In kind it is cell-based. The conditions noted are these: RPMI8866 cells on recombinant human MAdCAM coated plates; Tables 3A, 3B, 4; read-out: CA Assay (Example 7) IC50. Here is the method:
as §1, with “quantified. […]” for “quantified.”
To each well of a 96 well plate, 100 ug of recombinant human MAdCAM in 100 ul PBS is added and incubated overnight at 4° C. […] Plate is incubated on shaker for 2 minutes at 200 RPM followed by another 8 minutes off shaker before having the luminescence read on a Biotek Citation 5 plate reader. Raw data is converted to % inhibition compared to bottom of curve and analyzed using a 4-parameter non linear curve in Prism to determine IC50 and IC90.

On to `COc1ccc(C)c(-c2cc(C)c(F)c([C@H](CC(=O)O)NC(=O)C(CC(C)C)n3cc(CCN4CCC4)c(C(F)(F)F)cc3=O)c2)c1C` (single isomer, unassigned) [AG-P2], for which the 50% inhibitory concentration (IC50) (as a rule, the concentration that inhibits the measured activity by half) on integrin α4β7 is < 10 nM; at α4β7 [1], ≤ 10 nM.

`Cc1cc(=O)n([C@@H](CC(C)C)C(=O)N[C@@H](CC(=O)O)c2cc(-c3c(C)cccc3C)cc(F)c2F)cc1CCN1CC(F)C1` [D-P2, (3S)-3-(4,5-difluoro-2′,6′-dimethylbiphenyl-3-yl)-3-(2-(5-(2-(3-fluoroazetidin-1-yl)ethyl)-4-methyl-2-oxopyridin-1(2H)-yl)-4-methylpentanamido)propanoic acid]: the half-inhibitory concentration (IC50) on integrin α4β7 was < 10 nM; on α4β7 [2] it was < 5 nM.
